From ChEMBL document CHEMBL5143734, “Seco-Lupane Triterpene Derivatives Induce Ferroptosis through GPX4/ACSL4 Axis and Target Cyclin D1 to Block the Cell Cycle” (J Med Chem, 2022)

How the values were obtained:
Assay type in all cases: functional, cell-based
MCF7 = experiment: Cytotoxicity against human MCF7 cells assessed as reduction in cell viability by CCK-8 assay
A549 = experiment: Cytotoxicity against human A549 cells assessed as reduction in cell viability by CCK-8 assay
HepG2 = experiment: Cytotoxicity against human HepG2 cells assessed as reduction in cell viability by CCK-8 assay
PC-3M = experiment: Cytotoxicity against human PC-3M cells assessed as reduction in cell viability by CCK-8 assay
PANC-1 = experiment: Cytotoxicity against human PANC-1 cells assessed as reduction in cell viability by CCK-8 assay

| SMILES | IC50 (MCF7) [µM] | IC50 (A549) [µM] | IC50 (HepG2) [µM] | IC50 (PC-3M) [µM] | IC50 (PANC-1) [µM] |
| --- | --- | --- | --- | --- | --- |
| C=C(C)[C@@H]1CC[C@]2(C(=O)OCCCCCn3cnc(C)c3)CC[C@]3(C)[C@H](C[C@H]4OC(=O)C[C@@H](O)[C@]5(C)[C@@H]4[C@@]3(C)CC[C@H]5C(=C)C)[C@@H]12 | 95.8 | 12.9 | 10.6 | 14.8 | 26.5 |
| C=C(C)[C@@H]1CC[C@]2(C(=O)OCCCCCCn3cc(CCN)c4ccccc43)CC[C@]3(C)[C@H](C[C@H]4OC(=O)C[C@@H](O)[C@]5(C)[C@@H]4[C@@]3(C)CC[C@H]5C(=C)C)[C@@H]12 | 5.87 | 6.5 | 1.03 | 6 | 7.02 |
| C=C(C)[C@@H]1CC[C@]2(C(=O)OCCCCCCCCCCn3cnc(C)c3)CC[C@]3(C)[C@H](C[C@@H](O)[C@@H]4[C@@]5(C)C(CC(=O)OC)OC(C)(C)C5CC[C@]43C)[C@@H]12 (stereo not given in full) | 33.7 | 22.4 | 6.76 | 12.7 | 12.3 |
| C=C(C)[C@@H]1CC[C@]2(C(=O)OCCCCCn3ccnc3C)CC[C@]3(C)[C@H](C[C@@H](O)[C@@H]4[C@@]5(C)C(CC(=O)OC)OC(C)(C)C5CC[C@]43C)[C@@H]12 (stereo not given in full) | 53.8 | 34.5 | 20.2 | 37.8 | 43.1 |
| C=C(C)[C@@H]1CC[C@]2(C(=O)OCCCCCCCCCCn3cc(CCN)c4ccccc43)CC[C@]3(C)[C@H](C[C@H]4OC(=O)C[C@@H](O)[C@]5(C)[C@@H]4[C@@]3(C)CC[C@H]5C(=C)C)[C@@H]12 | 5.48 | 6.59 | 1.68 | 5.69 | 5.59 |
| C=C(C)[C@@H]1CC[C@]2(C(=O)OCCCCCBr)CC[C@]3(C)[C@H](C[C@H]4OC(=O)C[C@@H](O)[C@]5(C)[C@@H]4[C@@]3(C)CC[C@H]5C(=C)C)[C@@H]12 | 56.1 | 19.8 | 14.3 | 14.5 | 43.1 |
| C=C(C)[C@@H]1CC[C@]2(C(=O)OCCCn3cc(CCN)c4ccccc43)CC[C@]3(C)[C@H](C[C@H]4OC(=O)C[C@@H](O)[C@]5(C)[C@@H]4[C@@]3(C)CC[C@H]5C(=C)C)[C@@H]12 | 11.8 | 7.21 | 1.78 | 6.28 | 9.59 |
| C=C(C)[C@@H]1CC[C@]2(C(=O)OCCCCn3cncn3)CC[C@]3(C)[C@H](C[C@H]4OC(=O)C[C@@H](O)[C@]5(C)[C@@H]4[C@@]3(C)CC[C@H]5C(=C)C)[C@@H]12 | 46.2 | 31.3 | 110 | 18.1 | 60.5 |
| C=C(C)[C@@H]1CC[C@]2(C(=O)OCCCCCCn3ccnc3C)CC[C@]3(C)[C@H](C[C@H]4OC(=O)C[C@@H](O)[C@]5(C)[C@@H]4[C@@]3(C)CC[C@H]5C(=C)C)[C@@H]12 | 76.2 | 18.9 | 12.9 | 14 | 17.9 |
| C=C(C)[C@@H]1CC[C@]2(C(=O)OCCCCCn3cc(CCN)c4ccccc43)CC[C@]3(C)[C@H](C[C@@H](O)[C@@H]4[C@@]5(C)C(CC(=O)OC)OC(C)(C)C5CC[C@]43C)[C@@H]12 (stereo not given in full) | 18.1 | 6.63 | 1.7 | 3.87 | 5.81 |
| C=C(C)[C@@H]1CC[C@]2(C(=O)OCCCCCCCCCCn3ccnc3CC)CC[C@]3(C)[C@H](C[C@@H](O)[C@@H]4[C@@]5(C)C(CC(=O)OC)OC(C)(C)C5CC[C@]43C)[C@@H]12 (stereo not given in full) | 18.5 | 18.5 | 6.97 | 11.5 | 10.6 |
